For assay [1], the system named is SARS-CoV-2. The class given is cell-based.
The subject of assay [2] is SARS-CoV-2. The class given is cell-based. The source holds these as a separate data set.
Assay [3] concerns SARS-CoV-2. Conditions: cited from earlier work.
The test system of assay [4] is SARS-CoV-2. As to conditions: cited from earlier work. The source holds these as a separate data set.

Here are results for one compound from article PMC9610207 (Viruses, 2022).

Regarding `CCN(CC)CCCC(C)Nc1ccnc2cc(Cl)ccc12` (stereo not shown) [chloroquine, Chloroquine], the “viral infection in VeroE6 with chloroquine” value with SARS-CoV-2 [1] is listed as “strongly inhibited”. The “viral infection in Calu-3 with chloroquine” value in the assay with SARS-CoV-2 [2] is given as “resistant”. The “SARS-CoV-2 infection in VeroE6, previous studies” value in the assay on SARS-CoV-2 [3] is on record as “inhibited”. In addition, the “SARS-CoV-2 infection in Calu-3, previous studies” value in the assay with SARS-CoV-2 [4] is recorded as “not”.
